In PMC11239005, “Preclinical studies of RA475, a guanidine-substituted spirocyclic candidate RPN13/ADRM1 inhibitor for treatment of ovarian cancer” (PLOS ONE, 2024):
“And” between values parts separate entries of the source, which are not always exact repeats. Equal entries are not always repeated. Where two headings read alike, the source gives them in different places.

Assays:
Hep3B = assay: MTT cytotoxicity assay, Hep3B; type: cell-based; details: Homo sapiens, 72 h
Experimental: (§1) All cell lines were obtained from the American Type Culture Collection (ATCC) and cultured in the specified medium supplemented with 10% fetal bovine serum, 100 IU/mL penicillin, and 100 μg/mL streptomycin at 37°C in a humidified 5% CO2/95% air incubator. Synthesis of new compounds is described in S1 File, and >95% purity of RA475, Up284 and its analogs were confirmed by NMR and MS. To assess drug cytotoxicity, cells were seeded at 2,500 cells/well (10,000 cells/well for MM lines) in 100 μL medium in 96-well plate as triplicates and after 24 h treated with compounds for a further 72 h. To assess cytotoxicity, the cells were incubated for 2 h at 37°C according to the manufacturer’s protocol with the Thiazolyl Blue Tetrazolium Bromide (20 μL/well of 5 mg/mL stock solution in water) (Sigma, M5655) and A570 measured using a Benchmark Plus microplate spectrophotometer (BIO-RAD). IC50 was estimated using Graphpad Prism 7 software.

LaPC4 = assay: MTT cytotoxicity assay, LaPC4; type: cell-based; details: Homo sapiens, LaPC4, 72 h
Experimental: as §1

OVCAR3 cells = assay: MTT cytotoxicity assay, OVCAR3; type: cell-based, human; details: for IC50: Homo sapiens, OVCAR-3, OVCAR3, 72 h
Experimental: as §1
To study the effect of RA475 in combination with approved therapeutics (DNA damaging agents or radiation) an MTT assay was performed using various concentrations of both drugs. Briefly PEA1 and OVCAR3 cells were each treated with drug combination (RA475 plus cisplatin) for 72 h in a checker board analysis and cell viability was measured using MTT assay. The data were analyzed and plotted using the Synergy Finder web application.

SKOV3 = assay: MTT cytotoxicity assay, SKOV3; type: cell-based; details: Homo sapiens, SK-OV-3, SKOV3, 72 h
Experimental: as §1

MDA-MB-468 = assay: MTT cytotoxicity assay, MDA-MB-468; type: cell-based; details: Homo sapiens, MDA-MB-468, 72 h
Experimental: as §1

SUM149 = assay: MTT cytotoxicity assay, SUM149; type: cell-based; details: SUM149, 72 h
Experimental: as §1

PACS = assay: MTT cytotoxicity assay, PACS; type: cell-based; details: 72 h
Experimental: as §1

CT26 = assay: MTT cytotoxicity assay, CT26; type: cell-based; details: Mus musculus, CT26, 72 h
Experimental: as §1

HT29 = assay: MTT cytotoxicity assay, HT29; type: cell-based; details: Homo sapiens, HT-29, HT29, 72 h
Experimental: as §1

4T1 = assay: MTT cytotoxicity assay, 4T1; type: cell-based; details: Mus musculus, 4T1, 72 h
Experimental: as §1

PEO4 = assay: MTT cytotoxicity assay, PEO4; type: cell-based; details: Homo sapiens, PEO4, 72 h
Experimental: as §1
We elected to focus on RA475 and expanded the analysis in a larger panel of cell lines including those from common cancer types and normal tissues. […] This panel included another pair of cell lines isolated from another ovarian cancer patient with drug-resistant disease (PEO4) and pre-treatment (PEO1), and both were similarly sensitive to RA475.

ES2 = assay: MTT cytotoxicity assay, ES2; type: cell-based; details: Homo sapiens, ES-2, ES2, 72 h
Experimental: as §1

MCF7 = assay: MTT cytotoxicity assay, MCF7; type: cell-based; details: Homo sapiens, MCF7, 72 h
Experimental: as §1

Mouse keratinocytes = assay: MTT cytotoxicity assay, mouse keratinocytes; type: cell-based; details: Keratinocyte, Mouse keratinocytes (normal cells), 72 h
Experimental: as §1

[1] = LogD measurement, shake-flask octanol/PBS pH 7.4; type: physicochemical; details: for D: octanol/PBS pH 7.4, single injections 1-3; for LogD, pH 7.4: single injections 1-3
Experimental: Incubations were carried out in Eppendorf-type polypropylene microtubes in triplicates. A 2.5 μL aliquot of 20 mM DMSO stock of a test compound was added into the previously mutually saturated mixture containing 500 μL of PBS (pH 7.4) and 500 μL of octanol. The solution was allowed to mix in a rotator for 1 hour at 30 rpm. Phase separation was assured by centrifugation for 2 min at 6000 rpm. The octanol phase was diluted 100-fold with 40% acetonitrile, and the aqueous phase (PBS buffer) was diluted 10-fold. The samples (both phases) were analyzed using an HPLC system coupled with a tandem mass spectrometer. […] Calculations of the partition ratios were carried out using the equation below. D=do.So/dp.Sp where:
So–peak area of the analyte in octanol phase
SP–peak area of the analyte in PBS buffer
do–dilution coefficient for octanol phase

GSH reactivity assay = type: physicochemical; details: for Average Area Ratio Normalized: with GSH divided by without GSH; for remaining at 1.5 h, 20 μM: pH 7.4
Experimental: Test compounds (20 μM, final organic solvent concentration 10%) were incubated with 1 mM GSH in phosphate buffer (100 mM), pH 7.4 at 37°C, shaking at 300 rpm. In the control reactions (“without GSH”), the GSH was substituted with phosphate buffer. Five time points over 1.5 h were analyzed (0, 0.33, 0.66, 1 and 1.5 h). The reactions were stopped by adding 50 μL aliquots of the reaction mixture to 9 volumes of methanol: water: formic acid (10:10:0.04) with internal standard (IS). Samples were analyzed using HPLC system coupled with a tandem mass spectrometer. Average (triplicate) area ratios were calculated. GSH reactivity was calculated taking into account the possible instability of the compound during incubation. All calculations were performed using normalized data obtained by dividing the average area ratio of the test compound incubated with GSH by the average area ratio of the test compound incubated without GSH. Natural logarithms of the results were fitted to linear regression, and half-life (t1/2) was calculated as: t1/2=ln2/-slope

hERG potassium channel = hERG potassium channel (Homo sapiens, UniProt Q12809); assay: hERG Thallium Flux FLIPR-Based Assay
Chain of hERG potassium channel (Q12809 whole entry): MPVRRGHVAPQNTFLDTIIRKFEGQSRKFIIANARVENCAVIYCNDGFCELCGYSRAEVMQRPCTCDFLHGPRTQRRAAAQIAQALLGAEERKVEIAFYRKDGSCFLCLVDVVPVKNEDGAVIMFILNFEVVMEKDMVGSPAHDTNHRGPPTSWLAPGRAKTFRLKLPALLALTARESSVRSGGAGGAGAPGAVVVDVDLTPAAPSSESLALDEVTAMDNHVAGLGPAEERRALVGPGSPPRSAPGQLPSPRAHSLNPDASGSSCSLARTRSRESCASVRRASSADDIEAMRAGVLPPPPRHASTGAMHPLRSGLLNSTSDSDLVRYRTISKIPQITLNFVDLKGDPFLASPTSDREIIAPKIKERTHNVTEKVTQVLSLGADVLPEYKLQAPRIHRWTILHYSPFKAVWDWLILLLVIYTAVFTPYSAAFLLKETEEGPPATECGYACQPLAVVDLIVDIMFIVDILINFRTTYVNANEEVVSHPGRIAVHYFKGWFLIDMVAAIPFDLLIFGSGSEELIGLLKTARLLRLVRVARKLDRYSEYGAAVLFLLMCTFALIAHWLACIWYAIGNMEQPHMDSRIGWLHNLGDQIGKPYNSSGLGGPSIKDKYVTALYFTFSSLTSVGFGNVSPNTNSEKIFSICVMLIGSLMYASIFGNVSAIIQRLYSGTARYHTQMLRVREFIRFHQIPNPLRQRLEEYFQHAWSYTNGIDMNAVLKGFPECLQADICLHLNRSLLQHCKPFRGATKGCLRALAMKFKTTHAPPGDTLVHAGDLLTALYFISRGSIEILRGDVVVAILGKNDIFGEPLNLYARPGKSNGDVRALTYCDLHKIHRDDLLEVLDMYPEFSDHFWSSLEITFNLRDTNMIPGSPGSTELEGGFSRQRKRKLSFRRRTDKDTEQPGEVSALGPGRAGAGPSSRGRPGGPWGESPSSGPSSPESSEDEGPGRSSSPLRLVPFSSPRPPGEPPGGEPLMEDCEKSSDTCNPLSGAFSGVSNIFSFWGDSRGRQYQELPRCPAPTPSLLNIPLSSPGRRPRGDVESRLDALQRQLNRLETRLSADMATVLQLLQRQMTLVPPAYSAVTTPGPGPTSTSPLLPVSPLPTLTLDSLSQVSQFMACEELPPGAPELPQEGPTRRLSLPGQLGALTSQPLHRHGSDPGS
Experimental: Supplementary file pone.0305710.s008.tif: S8 Fig hERG inhibition in vitro. […] Concentration range of 0.023–50 μM (8 points, 3-fold serial dilutions) B) Dose-response curve for RA475. Concentration range of 0.045–100 μM (8 points, 3-fold serial dilutions). C) Dose-response curve for Up284. Concentration range of 0.045–100 μM (8 points, 3-fold serial dilutions). (TIF)

[2] = 0 h, 1 mM GSH, 20 μM compound, pH 7.4, 37°C
[3] = 1 mM GSH in phosphate buffer, 1.5 h, read-out: % Remaining with GSH, normalized
[4] = 1 mM GSH in phosphate buffer, 1 mM GSH, pH 7.4, 37°C, read-out: t1/2 with GSH, normalized (converted)
[5] = phosphate buffer, pH 7.4, 37°C, read-out: t1/2 w/o GSH
[6] = phosphate buffer, 1.5 h, read-out: % Remaining w/o GSH

Q: With `N#Cc1ccc(/C=C2/C(=O)/C(=C/c3ccc(C#N)cc3)C23CCNCC3)cc1` [Up284, reference compound] as the molecule, how does the IC50 (Hep3B) read?
A: The IC50 was 160 nM.

Q: What about the IC50 (LaPC4) of the same molecule?
A: The IC50 was 510 nM.

Q: And the IC50 (OVCAR3 cells)?
A: The IC50 was 50 nM.

Q: What about the IC50 (SKOV3) of the same molecule?
A: Its IC50 is 71 nM.

Q: What about the IC50 (MDA-MB-468) of the same molecule?
A: The IC50 was 72 nM.

Q: What about the IC50 (SUM149) of the same molecule?
A: The IC50 was 90 nM.

Q: What about the IC50 (PACS) of the same molecule?
A: Its IC50 is 125 nM.

Q: And the IC50 (CT26)?
A: Its IC50 is 50 nM.

Q: And the IC50 (HT29)?
A: The IC50 was 43 nM.

Q: And the IC50 (4T1)?
A: Its IC50 is 120 nM.

Q: And the IC50 (PEO4)?
A: Its IC50 is 61 nM.

Q: And the IC50 (ES2)?
A: The IC50 was 125 nM.

Q: What about the IC50 (MCF7) of the same molecule?
A: Its IC50 is 690 nM.

Q: What about the IC50 (Mouse keratinocytes) of the same molecule?
A: The IC50 was > 2500 nM.

Q: What about the logD ([1]; n-octanol/PBS, pH 7.4, mean of three injections) of the same molecule?
A: The logD was 2.12.

Q: And the logD ([1]; n-octanol/PBS, pH 7.4, single injections 1-3)?
A: The logD was 2.06.

Q: And the D [1]?
A: The D was 1.15E+02 and 1.32E+02 and 1.44E+02.

Q: And the “LogD, pH 7.4” value [1]?
A: Its value is 2.158.

Q: And the “time within which compound reacted with GSH” value (GSH reactivity assay)?
A: Its value is ≤ 30 min.

Q: And the “Average Area Ratio with GSH” value (GSH reactivity assay; [2])?
A: Its value is 1.00E+02.

Q: What about the “Average Area Ratio without GSH” value (GSH reactivity assay; 0 h, phosphate buffer) of the same molecule?
A: Its value is 1.00E+02.

Q: What about the “Average Area Ratio Normalized” value (GSH reactivity assay; 0 h) of the same molecule?
A: Its value is 8.68E+01.

Q: And the remaining at 1.5 h, 20 μM (GSH reactivity assay; [3])?
A: Its remaining at 1.5 h, 20 μM is 10%.

Q: What about the half-life at 20 μM (GSH reactivity assay; [4]) of the same molecule?
A: The half-life at 20 μM was 12.2 min.

Q: What about the “Average Area Ratio with GSH” value (GSH reactivity assay; 0.33 h, 1 mM GSH) of the same molecule?
A: The value was 1.76E+01.

Q: And the “Average Area Ratio without GSH” value (GSH reactivity assay; 0.33 h, phosphate buffer)?
A: Its value is 1.03E+02.

Q: And the “Average Area Ratio Normalized” value (GSH reactivity assay; 0.33 h)?
A: The value was 1.48E+01.

Q: And the “Average Area Ratio with GSH” value (GSH reactivity assay; 0.66 h, 1 mM GSH)?
A: Its value is 1.18E+01.

Q: And the “Average Area Ratio without GSH” value (GSH reactivity assay; 0.66 h, phosphate buffer)?
A: Its value is 1.13E+02.

Q: And the “Average Area Ratio Normalized” value (GSH reactivity assay; 0.66 h)?
A: Its value is 9.11E+00.

Q: And the “Average Area Ratio with GSH” value (GSH reactivity assay; 1 h, 1 mM GSH)?
A: Its value is 1.20E+01.

Q: What about the “Average Area Ratio without GSH” value (GSH reactivity assay; 1 h, phosphate buffer) of the same molecule?
A: Its value is 1.18E+02.

Q: What about the “Average Area Ratio Normalized” value (GSH reactivity assay; 1 h) of the same molecule?
A: Its value is 8.78E+00.

Q: And the “Average Area Ratio with GSH” value (GSH reactivity assay; 1.5 h, 1 mM GSH)?
A: Its value is 1.30E+01.

Q: And the “Average Area Ratio without GSH” value (GSH reactivity assay; 1.5 h, phosphate buffer)?
A: Its value is 1.18E+02.

Q: And the “Average Area Ratio Normalized” value (GSH reactivity assay; 1.5 h)?
A: Its value is 9.58E+00.

Q: And the half-life at 20 μM (GSH reactivity assay; [5])?
A: The half-life at 20 μM was > 360 min.

Q: And the remaining at 1.5 h, 20 μM (GSH reactivity assay; [6])?
A: Its remaining at 1.5 h, 20 μM is 118%.

Q: What about the IC50 (hERG potassium channel) of the same molecule?
A: Its IC50 is 4300 nM.

Q: What does the source list for `Cl.Cl.N#Cc1ccc(/C=C2/C(=O)/C(=C/c3ccc(C#N)cc3)C23CCN(C(=N)N)CC3)cc1` [RA475, 1,3-bis((E)-4-cyanobenzylidene)-2-oxo-7-azaspiro[3.5]nonane-7-carboximidamide dihydrochloride]?
A: IC50 (Hep3B): 997 nM; IC50 (LaPC4): 2030 nM; IC50 (OVCAR3 cells): 190 nM; synergy with cisplatin for cytotoxicity (OVCAR3 cells; OVCAR3, checker board, 72 h, Synergy Finder): mild synergy; IC50 (SKOV3): 294 nM; IC50 (MDA-MB-468): 292 nM; IC50 (SUM149): 100 nM; IC50 (PACS): 581 nM; IC50 (CT26): 630 nM; IC50 (HT29): 401 nM; IC50 (4T1): 261 nM; IC50 (PEO4): 260 nM; IC50 (ES2): 160 nM; IC50 (MCF7): 742 nM; IC50 (Mouse keratinocytes): > 2500 nM; D [1]: 3.84E+01 and 4.27E+01 and 3.16E+01; logD ([1]; pH 7.4, mean of three injections): 1.58; logD ([1]; pH 7.4, single injections 1-3): 1.58; LogD, pH 7.4 [1]: 1.631 and 1.5; time within which compound reacted with GSH (GSH reactivity assay): ≤ 30 min; Average Area Ratio with GSH (GSH reactivity assay; [2]): 1.00E+02; Average Area Ratio without GSH (GSH reactivity assay; 0 h, phosphate buffer): 1.00E+02; Average Area Ratio Normalized (GSH reactivity assay; 0 h): 9.10E+01; remaining at 1.5 h, 20 μM (GSH reactivity assay; [3]): 8%; half-life at 20 μM (GSH reactivity assay; [4]): 12.2 min; Average Area Ratio with GSH (GSH reactivity assay; 0.33 h, 1 mM GSH): 2.00E+01; Average Area Ratio without GSH (GSH reactivity assay; 0.33 h, phosphate buffer): 9.44E+01; Average Area Ratio Normalized (GSH reactivity assay; 0.33 h): 1.93E+01; Average Area Ratio with GSH (GSH reactivity assay; 0.66 h, 1 mM GSH): 1.02E+01; Average Area Ratio without GSH (GSH reactivity assay; 0.66 h, phosphate buffer): 9.60E+01; Average Area Ratio Normalized (GSH reactivity assay; 0.66 h): 9.62E+00; Average Area Ratio with GSH (GSH reactivity assay; 1 h, 1 mM GSH): 8.18E+00; Average Area Ratio without GSH (GSH reactivity assay; 1 h, phosphate buffer): 9.22E+01; Average Area Ratio Normalized (GSH reactivity assay; 1 h): 8.07E+00; Average Area Ratio with GSH (GSH reactivity assay; 1.5 h, 1 mM GSH): 7.92E+00; Average Area Ratio without GSH (GSH reactivity assay; 1.5 h, phosphate buffer): 9.03E+01; Average Area Ratio Normalized (GSH reactivity assay; 1.5 h): 7.98E+00; half-life at 20 μM (GSH reactivity assay; [5]): > 360 min; remaining at 1.5 h, 20 μM (GSH reactivity assay; [6]): 90%; IC50 (hERG potassium channel): 85800 nM
